Measurements taken from patent publication US20080134931A1, “Plasterboards Provided With Antimicrobial Effect” (priority 2005, published 2008).
Read-outs that look alike come from different tables or passages of the source.

What was measured:
Aspergillus flavus = assay: Minimum inhibitory concentration and synergism (Kull synergy index) of OPP/TBZ; assay type: cell-based; conditions: read-out: Amount of pure active substances which suppress growth (QA, QB; minimum inhibitory concentration)
From the text: For improving the overall performance of an antimicrobial treatment, the use of active substance mixtures is customary for compensating, for example, for gaps in the activity of one component or for optimizing the costs of preservation.
The synergism found for the mixture according to the invention can be determined via the following mathematical formula (cf. F. C. Kull, P. C. Elisman, H. D. Sylwestrowicz and P. K. Mayer, Appl. Microbiol. 9, 538 (1961):
Qa=amount of component A in the active substance mixture which achieves the desired effect, i.e. no microbial growth,
QA=amount of component A which, when used alone, suppresses the growth of the micro-organisms,
Qb=amount of component B in the active substance mixture which suppresses the growth of the micro-organisms,
QB=amount of component B which, when used alone, suppresses the growth of the micro-organisms.
Synergism of o-phenylphenol (OPP)/thiabendazole (TBZ)
Using the test micro-organism, Aspergillus flavus, the minimum inhibitory concentration of the active substance combinations listed in Table 2 were investigated.

[1] = system: mixture of moulds: Penicillium glaucum, Chaetomium globosum, Aspergillus niger, Aureobasidium pullulans; assay: Microbiological resistance of plasterboard treated with OPP in the gypsum core after inoculation with a fungal mixture, humid environment
From the text: For checking the effectiveness of a plasterboard treated with OPP in the gypsum core, the resistance was investigated in the laboratory after inoculation with a fungal mixture. For this purpose, sandwich-type plasterboard samples having the dimensions 14×5 cm are transferred to a 1 litre powder bottle and suspended by the bottle cap. At the start of the experiment, the test specimens thus prepared are immersed once in a mixture of the following moulds to simulate a strong fungal attack:
The mould species are material pests well known to the person skilled in the art and are therefore suitable for a qualifying conclusion about the degree of antimicrobial protection of a product treated with an OPP or the sodium or potassium salt thereof and optionally further active components. The sample boards are stored at room temperature over a period of up to 8 weeks, a water vapour-saturated atmosphere being continuously ensured by maintaining the initial amount of water at the bottom of the vessel (direct contact between plasterboard and water is not permitted). The assessment of the test specimens is effected at certain times and is carried out according to the following rating scheme:
0=no growth on the surface
1=slight growth (<10% of the surface infested)
2=moderate growth (<50% of the surface infested)
3=strong growth on the surface
Microbiological resistance of a plasterboard contaminated once in a humid environment

Row | MIC (Aspergillus flavus; substance used alone) [µg/mL] | Structure (SMILES) | MIC (Aspergillus flavus) [µg/mL] | Rating (mould growth on plasterboard surface) ([1]; 300 ppm OPP in the gypsum core, 1 week, water vapour-saturated atmosphere, room temperature) | Rating (mould growth on plasterboard surface) ([1]; 300 ppm OPP in the gypsum core, 3 weeks) | Rating (mould growth on plasterboard surface) ([1]; 300 ppm OPP in the gypsum core, 4 weeks) | Rating (mould growth on plasterboard surface) ([1]; 300 ppm OPP in the gypsum core, 8 weeks) | Rating (mould growth on plasterboard surface) ([1]; 500 ppm OPP in the gypsum core, 1 week) | Rating (mould growth on plasterboard surface) ([1]; 500 ppm OPP in the gypsum core, 3 weeks) | Rating (mould growth on plasterboard surface) ([1]; 500 ppm OPP in the gypsum core, 4 weeks) | Rating (mould growth on plasterboard surface) ([1]; 500 ppm OPP in the gypsum core, 8 weeks) | Rating (mould growth on plasterboard surface) ([1]; 750 ppm OPP in the gypsum core, 1 week) | Rating (mould growth on plasterboard surface) ([1]; 750 ppm OPP in the gypsum core, 3 weeks) | Rating (mould growth on plasterboard surface) ([1]; 750 ppm OPP in the gypsum core, 4 weeks) | Rating (mould growth on plasterboard surface) ([1]; 750 ppm OPP in the gypsum core, 8 weeks) | Concentration of use from which good effectiveness was found ([1]; based on the weight of the gypsum core) [ppm]
1 |  | Oc1ccccc1-c1ccccc1 [OPP, o-phenylphenol] | 100 | 0/0 | 0/0 | 0/0 | 0/0 | 0/0 | 0/0 | 0/0 | 0/0 | 0/0 | 0/0 | 0/0 | 0/0 | ≥ 300
2 | 500 | c1ccc2[nH]c(-c3cscn3)nc2c1 [TBZ, thiabendazole, reference compound] |  |  |  |  |  |  |  |  |  |  |  |  |  | 
